One may read the IC50 as the concentration needed to halve the response being measured.

In patent EP4813991A1 (iLeadBMS Co., Ltd., priority 2023, dated 2025) one finds IC50 data, which are given here for 18 molecules.

Assay [1] concerns the target T1, CDK12 (Homo sapiens, UniProt Q9NYV4). Description: CDK12 kinase inhibitory activity assay (33P-ATP filter binding). It counts as biochemical. As for the experimental part: (§1) Before initiating the CDK12 and CDK13 kinase reactions, each Example compound was dissolved and diluted in DMSO as a solvent across 9 concentration ranges at room temperature. The diluted solutions were then incubated with a mixture of kinase and substrate (and cofactors, if required) for 20 minutes. Next, radioisotope-labeled ATP (^33P-gamma-ATP) was added to proceed with the kinase reaction at room temperature for 120 minutes. After the reaction was completed, the reaction mixture was transferred to a filter paper that binds the radioisotope-labeled catalytic product (^33P-substrate). Unreacted ^33P-ATP was removed by washing with 0.75 % phosphoric acid, and then the radioactive phosphorylated substrate remaining on the filter paper was measured. Kinase activity data were expressed as a percentage of the kinase activity remaining in the test sample compared to a DMSO control group. The half-maximal inhibitory concentration (IC50) for each kinase was calculated using Prism (Graphpad) software.

Assay [2] concerns the target T1, CDK12. Description: Cellular CDK12 inhibitory activity assay (Ser2 phosphorylation of RNA polymerase II subunit B1 CTD in MDA-MB-231 cells). Format: cell-based. Also on record: using MDA-MB-231 breast cancer cells; endogenous in cells; host or cells: MDA-MB-231. As for the experimental part:
MDA-MB-231 cells were dispensed into a 96-well plate at 100 µL of cell suspension per well using L-15 (Invitrogen) medium containing 10 % FBS, followed by overnight incubation in a cell incubator at 37 °C and 0 % CO2. The next day, each Example compound dissolved in DMSO across 9 concentration ranges and a DMSO control group were treated on the MDA-MB-231 cells at 37 °C and 0 % CO2 for 6 hours. After the compound treatment, the medium in the 96-well plate was removed, and 60 µL of a fixing solution (4.0 % paraformaldehyde in PBS) was added to each well, followed by standing for 20 minutes. After removing the fixing solution and washing with PBS, 60 µL of PBS containing 0.1 % Triton X-100 was dispensed into each well, followed by shaking at room temperature for 15 minutes. After washing with PBS, 100 µL of blocking buffer was added, followed by shaking at room temperature for 1 hour. After removing the blocking buffer, primary antibodies, which are RNA polymerase II subunit B1 phospho-Ser2 (1:500, Cell signaling technology) and RNA polymerase II subunit B1 carboxy-terminal domain (1:200, Cell signaling technology), were added at 60 µL per well and reacted overnight at 4 °C. After adding 150 µL of PBS containing 0.1 % Triton X-100 and washing at least twice by shaking at room temperature for 5 minutes, 60 µL of a secondary antibody was added, followed by shaking at room temperature for 1 hour while blocking light. After adding 150 µL of PBS containing 0.1 % Triton X-100 and washing at least twice by shaking at room temperature for 5 minutes, 150 µL of PBS was added again, followed by washing at least twice by shaking at room temperature for 5 minutes. The plate was scanned using a Li-COR Odyssey machine with the wells filled with PBS. IC50 values were calculated by fitting a dose-response curve using a 4-parameter model of Prism (Graphpad) software.

The subject of assay [3] is MDA-MB-231 breast cancer cells. Briefly: Proliferation inhibitory activity assay against MDA-MB-231 breast cancer cells. It counts as cell-based. The conditions noted are these: Homo sapiens, 72 hours, CellTiter Glo, relative IC50. As for the experimental part:
Experiments were performed using the MDA-MB-231 breast cancer cell line to measure the cell proliferation inhibitory ability of each Example compound. MDA-MB-231 cells were dispensed into a 96-well plate at 100 µL of cell suspension per well using L-15 (Invitrogen) medium containing 10 % FBS, followed by incubation in a cell incubator at 37 °C and 0 % CO2. The next day, each Example compound dissolved and diluted in DMSO across 9 concentration ranges and a DMSO control group were treated on the cells for 72 hours. After the compound treatment was completed, 100 µL of CellTiter Glo (Promega) reagent was added to each well of the 96-well plate, followed by shaking for 10 minutes and standing at room temperature for 10 minutes. Luminescence signals were measured after inserting the 96-well plate into an Envision plate reader (PerkinElmer). Relative IC50 values were calculated by fitting a dose-response curve using XLfit (IDBS Ltd) software.
The breast cancer cell proliferation inhibitory activities of the Example compounds measured by the above method were evaluated according to the following criteria, and the results are presented in Table 13.

The next assay deals with CDK13 (Homo sapiens, UniProt Q14004). Description: CDK13 kinase inhibitory activity assay (33P-ATP filter binding). It counts as biochemical. As for the experimental part:
as §1

Where [4] appears, read: kinase reaction 120 minutes, 33P-gamma-ATP, read-out: CDK12 IC50.
The mark [5] stands for this setting: MDA-MB-231 cells, 6 hours treatment, read-out: pRpbl CTD S2 IC50.
[6] abbreviates: kinase reaction 120 minutes, 33P-gamma-ATP, read-out: CDK13 IC50.

Molecules are shown by their SMILES. Where two headings read alike, the source gives them in different places.

T1 sequence (Q9NYV4 whole entry, species assumed): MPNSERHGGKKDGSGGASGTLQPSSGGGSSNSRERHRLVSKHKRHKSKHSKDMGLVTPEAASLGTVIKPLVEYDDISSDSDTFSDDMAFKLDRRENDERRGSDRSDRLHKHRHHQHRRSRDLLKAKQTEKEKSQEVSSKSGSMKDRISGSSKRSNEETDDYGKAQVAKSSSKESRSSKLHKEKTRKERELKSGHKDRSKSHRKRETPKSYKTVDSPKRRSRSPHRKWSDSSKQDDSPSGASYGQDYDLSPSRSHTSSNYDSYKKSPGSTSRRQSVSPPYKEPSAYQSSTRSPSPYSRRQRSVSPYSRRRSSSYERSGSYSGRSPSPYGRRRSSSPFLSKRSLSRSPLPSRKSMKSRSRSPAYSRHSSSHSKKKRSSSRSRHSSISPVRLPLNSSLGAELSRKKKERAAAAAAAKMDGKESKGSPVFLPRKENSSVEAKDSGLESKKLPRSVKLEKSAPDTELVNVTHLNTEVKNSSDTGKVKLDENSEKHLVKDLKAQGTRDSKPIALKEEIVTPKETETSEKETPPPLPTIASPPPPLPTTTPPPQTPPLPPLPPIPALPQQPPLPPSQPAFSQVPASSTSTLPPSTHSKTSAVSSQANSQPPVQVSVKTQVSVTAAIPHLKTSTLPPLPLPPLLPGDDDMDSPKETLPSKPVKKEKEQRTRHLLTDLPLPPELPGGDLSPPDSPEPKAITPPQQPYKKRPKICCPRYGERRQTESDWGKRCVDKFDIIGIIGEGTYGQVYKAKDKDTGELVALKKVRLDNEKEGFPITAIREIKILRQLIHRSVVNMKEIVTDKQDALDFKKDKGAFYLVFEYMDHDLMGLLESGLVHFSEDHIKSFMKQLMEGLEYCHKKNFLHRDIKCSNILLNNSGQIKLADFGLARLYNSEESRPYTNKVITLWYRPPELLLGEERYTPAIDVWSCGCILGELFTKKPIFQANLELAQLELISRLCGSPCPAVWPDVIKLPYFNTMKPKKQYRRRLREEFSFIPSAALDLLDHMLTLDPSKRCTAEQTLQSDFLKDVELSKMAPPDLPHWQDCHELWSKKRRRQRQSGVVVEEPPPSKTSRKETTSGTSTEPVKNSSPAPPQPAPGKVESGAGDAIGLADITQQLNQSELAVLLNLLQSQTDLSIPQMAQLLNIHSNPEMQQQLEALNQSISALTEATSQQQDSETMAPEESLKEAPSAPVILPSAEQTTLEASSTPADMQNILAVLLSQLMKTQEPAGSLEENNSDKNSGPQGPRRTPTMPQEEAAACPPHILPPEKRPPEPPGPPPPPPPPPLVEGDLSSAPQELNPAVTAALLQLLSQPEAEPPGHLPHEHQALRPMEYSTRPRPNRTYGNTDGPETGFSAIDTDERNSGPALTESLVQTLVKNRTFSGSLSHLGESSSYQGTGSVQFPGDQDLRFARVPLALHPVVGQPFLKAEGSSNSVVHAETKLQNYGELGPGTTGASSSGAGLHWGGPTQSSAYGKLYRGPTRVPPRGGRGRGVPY
T1 sequence (O75909 whole entry partner, species assumed): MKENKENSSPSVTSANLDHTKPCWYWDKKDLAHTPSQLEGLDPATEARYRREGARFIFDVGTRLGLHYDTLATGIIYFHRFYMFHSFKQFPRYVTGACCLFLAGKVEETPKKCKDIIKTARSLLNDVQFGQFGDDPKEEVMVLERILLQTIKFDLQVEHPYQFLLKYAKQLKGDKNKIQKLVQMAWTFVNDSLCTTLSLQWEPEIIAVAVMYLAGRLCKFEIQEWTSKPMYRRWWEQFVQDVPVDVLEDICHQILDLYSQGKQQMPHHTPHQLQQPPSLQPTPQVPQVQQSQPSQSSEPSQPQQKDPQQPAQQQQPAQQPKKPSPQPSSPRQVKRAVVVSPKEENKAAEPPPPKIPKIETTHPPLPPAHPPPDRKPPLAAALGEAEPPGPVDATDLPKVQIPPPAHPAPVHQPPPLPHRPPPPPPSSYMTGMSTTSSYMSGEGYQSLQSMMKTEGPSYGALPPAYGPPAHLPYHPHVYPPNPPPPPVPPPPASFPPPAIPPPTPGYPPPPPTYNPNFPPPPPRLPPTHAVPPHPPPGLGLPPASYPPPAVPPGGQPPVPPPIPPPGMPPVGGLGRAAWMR
Chain of CDK13 (Q14004 whole entry, species assumed): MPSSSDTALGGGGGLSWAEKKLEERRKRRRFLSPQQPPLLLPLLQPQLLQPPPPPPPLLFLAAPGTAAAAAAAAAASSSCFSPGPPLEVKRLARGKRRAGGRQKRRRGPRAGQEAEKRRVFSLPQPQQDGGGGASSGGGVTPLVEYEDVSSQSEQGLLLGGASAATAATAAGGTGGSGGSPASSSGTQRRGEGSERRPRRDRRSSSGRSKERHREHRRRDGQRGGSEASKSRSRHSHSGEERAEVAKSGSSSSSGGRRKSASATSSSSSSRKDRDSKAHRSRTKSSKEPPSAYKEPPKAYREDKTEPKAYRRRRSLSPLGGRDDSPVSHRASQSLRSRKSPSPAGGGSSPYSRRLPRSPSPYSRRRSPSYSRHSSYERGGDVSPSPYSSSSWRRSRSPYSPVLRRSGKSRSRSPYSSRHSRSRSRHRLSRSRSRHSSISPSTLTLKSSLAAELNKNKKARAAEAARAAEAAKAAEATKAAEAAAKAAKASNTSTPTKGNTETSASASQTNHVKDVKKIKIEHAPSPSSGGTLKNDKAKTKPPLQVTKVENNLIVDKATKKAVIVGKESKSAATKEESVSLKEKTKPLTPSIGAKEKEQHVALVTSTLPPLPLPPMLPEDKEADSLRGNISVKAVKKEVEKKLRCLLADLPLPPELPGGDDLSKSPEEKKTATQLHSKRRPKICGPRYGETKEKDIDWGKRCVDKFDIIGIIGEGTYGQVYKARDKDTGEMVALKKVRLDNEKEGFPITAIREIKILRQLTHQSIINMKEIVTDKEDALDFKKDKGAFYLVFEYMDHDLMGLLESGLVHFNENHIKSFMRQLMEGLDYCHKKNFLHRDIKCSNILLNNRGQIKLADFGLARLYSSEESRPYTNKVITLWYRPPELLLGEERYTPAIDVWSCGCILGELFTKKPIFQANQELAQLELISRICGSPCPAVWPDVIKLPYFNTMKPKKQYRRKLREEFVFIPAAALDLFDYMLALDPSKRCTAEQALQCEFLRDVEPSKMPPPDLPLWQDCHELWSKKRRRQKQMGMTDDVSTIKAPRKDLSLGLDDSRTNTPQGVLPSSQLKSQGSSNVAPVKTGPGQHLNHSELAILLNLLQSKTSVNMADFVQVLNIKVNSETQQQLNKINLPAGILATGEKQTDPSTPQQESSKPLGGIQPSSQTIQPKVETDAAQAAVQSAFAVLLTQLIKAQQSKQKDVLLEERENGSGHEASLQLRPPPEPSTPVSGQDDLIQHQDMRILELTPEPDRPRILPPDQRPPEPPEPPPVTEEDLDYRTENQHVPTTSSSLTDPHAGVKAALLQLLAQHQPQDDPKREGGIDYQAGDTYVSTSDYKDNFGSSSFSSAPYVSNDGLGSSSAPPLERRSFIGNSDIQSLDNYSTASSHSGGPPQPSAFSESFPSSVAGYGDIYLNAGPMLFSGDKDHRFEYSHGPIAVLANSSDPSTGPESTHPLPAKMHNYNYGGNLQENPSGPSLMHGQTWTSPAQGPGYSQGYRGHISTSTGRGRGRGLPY
Chain of CDK13 (O75909 whole entry partner, species assumed): as the sequence (O75909 whole entry partner, species assumed) above

For the molecule `C#Cc1cnc2c(NCc3nc4ccc(F)c(F)c4[nH]3)cc(N3CCOCC3)nn12` [Example 1, N-((6,7-difluoro-1H-benzo[d]imidazol-2-yl)methyl)-3-ethynyl-6-morpholinoimidazo[1,2-b]pyridazin-8-amine], the IC50 was 100 to 500 nM on CDK12 [1] (setting [4]), 300 to 3000 nM on CDK12 [2] (setting [5]), 50 to 500 nM in assay [3] and below 100 nM on CDK13.
For the molecule `Fc1ccc2nc(CNc3cc(N4CCOCC4)nn4c(CC(F)(F)F)cnc34)[nH]c2c1F` [Example 2, N-((6,7-difluoro-1H-benzo[d]imidazol-2-yl)methyl)-6-morpholino-3-(2,2,2-trifluoroethyl)imidazo[1,2-b]pyridazin-8-amine], the half-maximal inhibitory concentration (IC50) on CDK12 [1] (setting [4]) lay within 100 to 500 nM; on CDK12 [2] (setting [5]), 300 to 3000 nM; in assay [3] it was 50 to 500 nM; at CDK13, 100 to 500 nM.
For `CC(C)c1cnc2c(NCc3nc4ccc(F)c(F)c4[nH]3)cc(N3CCOCC3)nn12` [Example 3, N-((6,7-difluoro-1H-benzo[d]imidazol-2-yl)methyl)-3-isopropyl-6-morpholinoimidazo[1,2-b]pyridazin-8-amine], the IC50 at CDK12 [1] (setting [4]) was above 500 nM; on CDK12 [2] (setting [5]) it was 300 to 3000 nM; in assay [3], 50 to 500 nM; at CDK13, 100 to 500 nM.
Regarding `Cc1cnc2c(NCc3nc4ccc(F)c(F)c4[nH]3)cc(N3CCOCC3)nn12` [Example 4, N-((6,7-difluoro-1H-benzo[d]imidazol-2-yl)methyl)-3-methyl-6-morpholinoimidazo[1,2-b]pyridazin-8-amine], the IC50 is above 500 nM on CDK12 [1] (setting [4]), above 3000 nM on CDK12 [2] (setting [5]), above 500 nM in assay [3] and 100 to 500 nM on CDK13 (setting [6]).
Take `CCc1cnc2c(NCc3nc4ccc(F)c(F)c4[nH]3)cc(N3CCOCC3)nn12` [Example 5, N-((6,7-difluoro-1H-benzo[d]imidazol-2-yl)methyl)-3-ethyl-6-morpholinoimidazo[1,2-b]pyridazin-8-amine]: the IC50 on CDK12 [1] (setting [4]) was 100 to 500 nM; on CDK12 [2] (setting [5]), 300 to 3000 nM; in assay [3] it was 50 to 500 nM; on CDK13 (setting [6]), below 100 nM.
As for `Fc1ccc2nc(CNc3cc(N4CCOCC4)nn4c(C(F)(F)F)cnc34)[nH]c2c1F` [Example 6, N-((6,7-difluoro-1H-benzo[d]imidazol-2-yl)methyl)-6-morpholino-3-(trifluoromethyl)imidazo[1,2-b]pyridazin-8-amine], the half-inhibitory concentration (IC50) on CDK12 [1] (setting [4]) is below 100 nM; on CDK12 [2] (setting [5]), below 300 nM; in assay [3], at most 50 nM; at CDK13 (setting [6]), below 100 nM.
`Fc1ccc2nc(CNc3cc(N4CC5CCC(C4)O5)nn4c(C(F)(F)F)cnc34)[nH]c2c1F` [Example 9]: the IC50 is below 100 nM at CDK12 [1], below 300 nM on CDK12 [2] (setting [5]), at most 50 nM in assay [3] and below 100 nM at CDK13 (setting [6]).
On to `Fc1ccc2nc(CNc3cc(N4CC5CCC(C4)N5)nn4c(C(F)(F)F)cnc34)[nH]c2c1F` [Example 10, 6-(3,8-diazabicyclo[3.2.1]octan-3-yl)-N-((6,7-difluoro-1H-benzo[d]imidazol-2-yl)methyl)-3-(trifluoromethyl)imidazo[1,2-b]pyridazin-8-amine], for which the IC50 is below 100 nM at CDK12 [1] (setting [4]), below 300 nM at CDK12 [2] (setting [5]), at most 50 nM in assay [3] and below 100 nM on CDK13 (setting [6]).
With `Fc1ccc2nc(CNc3cc(N4CC5CCC4CO5)nn4c(C(F)(F)F)cnc34)[nH]c2c1F` (stereo not shown) [Example 12], the IC50 is below 100 nM at CDK12 [1], below 300 nM at CDK12 [2] (setting [5]), at most 50 nM in assay [3] and below 100 nM on CDK13 (setting [6]).
As to `Fc1ccc2nc(CNc3cc(N4CCC4)nn4c(C(F)(F)F)cnc34)[nH]c2c1F` [Example 15], the IC50 was 100 to 500 nM on CDK12 [1] (setting [4]), 300 to 3000 nM on CDK12 [2] (setting [5]), at most 50 nM in assay [3] and below 100 nM at CDK13 (setting [6]).
The matching figures for `CC#Cc1cnc2c(NCc3nc4ccc(F)c(F)c4[nH]3)cc(-c3cnc(N)nc3)nn12` [Example 20, 6-(2-aminopyrimidin-5-yl)-N-((6,7-difluoro-1H-benzo[d]imidazol-2-yl)methyl)-3-(prop-1-yn-1-yl)imidazo[1,2-b]pyridazin-8-amine]: above 500 nM, 300 to 3000 nM, 50 to 500 nM and 100 to 500 nM.
On the same counts, the results for `Nc1ncc(-c2cc(NCc3nc4ccc(F)c(F)c4[nH]3)c3ncc(C#CC4CC4)n3n2)cn1` [Example 21, 6-(2-aminopyrimidin-5-yl)-3-(cyclopropylethynyl)-N-((6,7-difluoro-1H-benzo[d]imidazol-2-yl)methyl)imidazo[1,2-b]pyridazin-8-amine] are above 500 nM, above 3000 nM, above 500 nM and above 500 nM.
With `CC#Cc1cnc2c(NCc3nc4ccc(F)c(F)c4[nH]3)cc(N3CCOCC3)nn12` [Example 24, N-((6,7-difluoro-1H-benzo[d]imidazol-2-yl)methyl)-6-morpholino-3-(prop-1-yn-1-yl)imidazo[1,2-b]pyridazin-8-amine], the 50% inhibitory concentration (IC50) on CDK12 [1] (setting [4]) is above 500 nM; on CDK12 [2] (setting [5]) it was above 3000 nM; in assay [3] it was above 500 nM; at CDK13 (setting [6]) it was 100 to 500 nM.
As to `Fc1ccc2nc(CNc3cc(N4CCOCC4)nn4c(C#CC5CC5)cnc34)[nH]c2c1F` [Example 25, 3-(cyclopropylethynyl)-N-((6,7-difluoro-1H-benzo[d]imidazol-2-yl)methyl)-6-morpholinoimidazo[1,2-b]pyridazin-8-amine], the IC50 on CDK12 [1] (setting [4]) was above 500 nM; at CDK12 [2] (setting [5]), above 3000 nM; in assay [3], above 500 nM; at CDK13 (setting [6]), above 500 nM.
As to `Fc1ccc2nc(CNc3cc(N4CCOCC4)nn4c(I)cnc34)[nH]c2c1F` [Example 26, N-((6,7-difluoro-1H-benzo[d]imidazol-2-yl)methyl)-3-iodo-6-morpholinoimidazo[1.2-b]pyridazin-8-amine], the IC50 on CDK12 [1] was above 500 nM; against CDK12 [2], above 3000 nM; in assay [3], above 500 nM; on CDK13, above 500 nM.
On to `Fc1ccc2nc(CNc3cc(N4CCOCC4)nn4c(Cl)cnc34)[nH]c2c1F` [Example 27, 3-chloro-N-((6,7-difluoro-1H-benzo[d]imidazol-2-yl)methyl)-6-morpholinoimidazo[1,2-b]pyridazin-8-amine], for which the IC50 was above 500 nM at CDK12 [1], above 3000 nM on CDK12 [2] (setting [5]), above 500 nM in assay [3] and above 500 nM on CDK13 (setting [6]).
Regarding `Fc1ccc2nc(CNc3cc(N4CCN(C5CC5)CC4)nn4c(C(F)(F)F)cnc34)[nH]c2c1F` [Example 28, 6-(4-cyclopropylpiperazin-1-yl)-N-((6,7-difluoro-1H-benzo[d]imidazol-2-yl)methyl)-3-(trifluoromethyl)imidazo[1,2-b]pyridazin-8-amine], the concentration for half-maximal inhibition (IC50) lay in the range of 100 to 500 nM on CDK12 [1] (setting [4]), 300 to 3000 nM on CDK12 [2] (setting [5]), 50 to 500 nM in assay [3] and 100 to 500 nM on CDK13.
Consider `N#CC1CN(c2cc(NCc3nc4ccc(F)c(F)c4[nH]3)c3ncc(C(F)(F)F)n3n2)C1` [Example 54, 1-(8-(((6,7-difluoro-1H-benzo[d]imidazol-2-yl)methyl)amino)-3-(trifluoromethyl)imidazo[1,2-b]pyridazin-6-yl)azetidine-3-carbonitrile], for which the IC50 on CDK12 [2] (setting [5]) lay in the range of 300 to 3000 nM; in assay [3] it was 50 to 500 nM.
